The values that follow come from ChEMBL document CHEMBL4138276, “Hamigerans R and S: Nitrogenous Diterpenoids from the New Zealand Marine Sponge Hamigera tarangaensis” (J Nat Prod, 2018).

The source made the active and inactive calls. No cut-off for these calls is given here.

The experiment relates to HL-60. Nature of the experiment: Cytotoxicity against human HL60 cells assessed as inhibition of cell proliferation at <10 uM after 48 hrs by MTT assay. The experiment is classed as functional, cell-based. In general terms: Tetrazolium dyes change colour on reduction, which living cells bring about.
As to `Cc1cc2c3c(c1Br)O[C@]14N[C@]3(Oc3c(Br)c(C)cc(c31)[C@H]1[C@@H](C(C)C)CC[C@@]1(C)CC4=O)C(=O)C[C@]1(C)CC[C@H](C(C)C)[C@H]21`, the inhibition result is “inactive”.
The same measure for `COC(=O)[C@]1(O)C(=O)c2c(O)c(Br)c(C)c(Br)c2[C@H]2[C@@H](C(C)C)CC[C@]21C`: “inactive”; for `Cc1cc(O)c2c(c1)[C@H]1[C@@H](C(C)C)CC[C@@]1(C)[C@@H](O)[C@H](O)C2=O`: “inactive”; for `Cc1cc(O)c2c(c1)[C@H]1[C@@H](C(C)C)CC[C@@]1(C)C(=O)C2=O`: “inactive”.
The same measure for `COC(=O)c1c([C@H]2[C@@H](C(C)C)CC[C@@]2(C)CC(=O)O)cc(C)c(Br)c1O`: “inactive”; for `Cc1cc([C@H]2[C@@H](C(C)C)CC[C@@]2(C)CC(=O)O)c(C#N)c(O)c1Br`: “inactive”; for `COC(=O)[C@@]1(O)C(=O)[C@]2(C)CC[C@H](C(C)C)[C@@H]2c2cc(C)cc(O)c21`: “inactive”.
